Earlier results, collected in publication PMC5473336 (Journal of medicinal chemistry, 2016).
“Also recorded” adds a separate entry of the source. Where two headings read alike, the source gives them in different places.

Tests used:
RAD51 [1] = settings: cited from earlier work
RAD51 [2] = settings: cited from earlier work; remark: listed apart in the source
human cells = settings: following irradiation; cited from earlier work

SMILES: C[C@@]12CCC(=O)c3coc(c31)C(=O)c1cc3c(cc12)C(=O)C=CC3=O [halenaquinone]
- RAD51 D-loop activity (in words) (RAD51 [1]): specifically inhibit D-loop formation
- RAD51 D-loop activity (in words) (RAD51 [1]; listed as Halenaquinone): strongly inhibit
- RAD51 ssDNA binding activity (in words) (RAD51 [2]): sparing
- RAD51 foci at DSB sites in cells (in words) (human cells): inhibit the formation of RAD51 foci; also recorded: reduces the subnuclear appearance of RAD51 foci
